SMILES strings stand for the structures. Structures can show the parent of a compound that is named as a salt.

Take `CCN([C@H]1CC[C@H](c2ccc3[nH]c(=O)oc3c2)CC1)[C@H](C)CCc1ccccc1` (as salt: HCl) [Example 27, 6-(trans-4-{Ethyl-[(R)-1-methyl-3-phenylpropyl]amino}cyclohexyl)-3H-benzoxazol-2-one]: the melting point was 139 to 158 °C.

The compound `CCN([C@H]1CC[C@H](c2ccc3[nH]c(=O)oc3c2)CC1)[C@@H](C)CCc1ccccc1` (as salt: HCl) [Example 28, 6-(trans-4-{Ethyl-[(S)-1-methyl-3-phenylpropyl]amino}cyclohexyl)-3H-benzoxazol-2-one] came in with a melting point of 221 to 246 °C.

In turn, `O=c1[nH]c2ccc([C@H]3CC[C@H](N(CCO)CCCc4ccc(F)cc4)CC3)cc2o1` (as salt: HCl) [Example 29, 6-{trans-4-[[3-(4-Fluorophenyl)propyl]-(2-hydroxyethyl)amino]cyclohexyl}-3H-benzoxazol-2-one] came in with a melting point of 259 to 262 °C.

Take `O=c1[nH]c2ccc([C@H]3CC[C@H](N(CCCc4ccc(F)cc4)CC4CC4)CC3)cc2o1` (as salt: HCl) [Example 30, 6-(trans-4-{Cyclopropylmethyl-[3-(4-fluorophenyl)propyl]amino}cyclohexyl)-3H-benzoxazol-2-one]: the melting point fell in the range of 221 to 225 °C.

Compound `O=c1[nH]c2ccc([C@H]3CC[C@H](N(CCCc4ccc(F)cc4)Cc4ccoc4)CC3)cc2o1` (as salt: HCl) [Example 31, 6-(trans-4-{[3-(4-Fluorophenyl)propyl]furan-3-ylmethylamino}cyclohexyl)-3H-benzoxazol-2-one] gave a melting point of 225 to 227 °C.

Turning to `C=CCN(CCCc1ccc(F)cc1)[C@H]1CC[C@H](c2ccc3[nH]c(=O)oc3c2)CC1` (as salt: HCl) [Example 32, 6-(trans-4-{Allyl-[3-(4-fluorophenyl)propyl]amino}cyclohexyl)-3H-benzoxazol-2-one], the melting point was in the range of 224 to 230 °C.

Consider `CC(C)CN(CCCc1ccc(F)cc1)[C@H]1CC[C@H](c2ccc3[nH]c(=O)oc3c2)CC1` (as salt: HCl) [Example 33, 6-(trans-4-{[3-(4-Fluorophenyl)propyl]isobutylamino}cyclohexyl)-3H-benzoxazol-2-one], for which the melting point is 199 to 201 °C.

`NC(=O)CN(CCCc1ccc(F)cc1)[C@H]1CC[C@H](c2ccc3[nH]c(=O)oc3c2)CC1` (as salt: HCl) [Example 34, 2-{[3-(4-Fluorophenyl)propyl]-[4-(2-oxo-2,3-dihydro-benzoxazol-6-yl)-cyclohexyl]amino}acetamide] showed a melting point of 266 to 270 °C.

The compound `NCCN(CCCc1ccc(F)cc1)[C@H]1CC[C@H](c2ccc3[nH]c(=O)oc3c2)CC1` (as salt: HCl) [Example 35, 6-(trans-4-{(2-Aminoethyl)-[3-(4-fluorophenyl)propyl]amino}cyclohexyl)-3H-benzoxazol-2-one] had a melting point of 161 to 169 °C.

For `CN(CCCc1ccc(F)c(F)c1)[C@H]1CC[C@H](c2ccc3[nH]c(=O)oc3c2)CC1` (as salt: HCl) [Example 40b, 6-(trans-4-{[3-(3,4-Difluorophenyl)propyl]methylamino}cyclohexyl)-3H-benzoxazol-2-one], the melting point was 224 to 227 °C.

`CN(CCCc1ccc(Cl)cc1F)[C@H]1CC[C@H](c2ccc3[nH]c(=O)oc3c2)CC1` (as salt: HCl) [Example 45b, 6-(trans-4-{[3-(4-Chloro-2-fluorophenyl)propyl]methylamino}cyclohexyl)-3H-benzoxazol-2-one] returned a melting point of 274 to 275 °C.

As to `CN(CCCc1ccccc1F)[C@H]1CC[C@H](c2ccc3[nH]c(=O)oc3c2)CC1` (as salt: HCl) [Example 46b, 6-(trans-4-{[3-(2-Fluorophenyl)propyl]methylamino}cyclohexyl)-3H-benzoxazol-2-one], the melting point lay within 242 to 246 °C.

In the case of `CN(CCCc1cccc(F)c1)[C@H]1CC[C@H](c2ccc3[nH]c(=O)oc3c2)CC1` (as salt: HCl) [Example 47b, 6-(trans-4-{[3-(3-Fluorophenyl)propyl]methylamino}cyclohexyl)-3H-benzoxazol-2-one], the melting point was in the range of 210 to 238 °C.

`Cc1c(F)cccc1CCCN(C)[C@H]1CC[C@H](c2ccc3[nH]c(=O)oc3c2)CC1` (as salt: HCl) [Example 48b, 6-(trans-4-{[3-(3-Fluoro-2-methylphenyl)propyl]methylamino}cyclohexyl)-3H-benzoxazol-2-one]: the melting point was in the range of 264 to 269 °C.

Compound `CN(CCCC1CCCCC1)[C@H]1CC[C@H](c2ccc3[nH]c(=O)oc3c2)CC1` (as salt: HCl) [Example 49b, 6-{trans-4-[(3-Cyclohexylpropyl)methylamino]cyclohexyl}-3H-benzoxazol-2-one] showed a melting point of 247 to 251 °C.

Compound `CN(CCCc1ccsc1)[C@H]1CC[C@H](c2ccc3[nH]c(=O)oc3c2)CC1` (as salt: HCl) [Example 52b, 6-[trans-4-{[3-(3-Thiophen-3-yl)propyl]methylamino}cyclohexyl)-3H-benzoxazol-2-one] had a melting point of 246 to 248 °C.

As for `CC(C)c1ccc(CCCN(C)[C@H]2CC[C@H](c3ccc4[nH]c(=O)oc4c3)CC2)cc1` (as salt: HCl) [Example 53, 6-(trans-4-{[3-(4-Isopropylphenyl)propyl]methylamino}cyclohexyl)-3H-benzoxazol-2-one], the melting point lay in the range of 179 to 181 °C.

In the case of `CN(CCCc1ccc(Cl)cc1Cl)[C@H]1CC[C@H](c2ccc3[nH]c(=O)oc3c2)CC1` (as salt: HCl) [Example 54, 6-(trans-4-{[3-(2,4-Dichlorophenyl)propyl]methylamino}cyclohexyl)-3H-benzoxazol-2-one], the melting point lay within 273 to 279 °C.

The compound `CN(CCCc1ccc(F)c(F)c1F)[C@H]1CC[C@H](c2ccc3[nH]c(=O)oc3c2)CC1` (as salt: HCl) [Example 55, 6-(trans-4-{[3-(2,3,4-Trifluorophenyl)propyl]methylamino}cyclohexyl)-3H-benzoxazol-2-one] registered a melting point of 269 to 274 °C.

For `CC(C)Cc1ccc(CCCN(C)[C@H]2CC[C@H](c3ccc4[nH]c(=O)oc4c3)CC2)cc1` (as salt: HCl) [Example 56, 6-(trans-4-{[3-(4-Isobutylphenyl)propyl]methylamino}cyclohexyl)-3H-benzoxazol-2-one], the melting point fell in the range of 162 to 165 °C.

`CN(CCCc1c(F)cc(F)cc1F)[C@H]1CC[C@H](c2ccc3[nH]c(=O)oc3c2)CC1` (as salt: HCl) [Example 57, 6-(trans-4-{[3-(2,4,6-Trifluorophenyl)propyl]methylamino}cyclohexyl)-3H-benzoxazol-2-one] registered a melting point of 235 to 238 °C.

As to `CN(CCCc1nccs1)[C@H]1CC[C@H](c2ccc3[nH]c(=O)oc3c2)CC1` (as salt: HCl) [Example 59, 6-{trans-4-[Methyl(3-thiazol-2-ylpropyl)amino]cyclohexyl}-3H-benzoxazol-2-one], the melting point fell in the range of 237 to 239 °C.

In the case of `CN(CCN(C)[C@H]1CC[C@H](c2ccc3[nH]c(=O)oc3c2)CC1)c1ccccc1` (as salt: HCl) [Example 60, 6-(trans-4-{Methyl-[2-(Methylphenylamino)ethyl]amino}cyclohexyl)-3H-benzoxazol-2-one], the melting point was 240 to 243 °C.

Compound `O=c1[nH]c2ccc([C@H]3CC[C@H](NCCCc4ccc(F)cc4)CC3)cc2[nH]1` (as salt: HCl) [Example 62, 5-{trans-4-[3-(4-Fluorophenyl)propylamino]cyclohexyl}-1,3-dihydrobenzoimidazol-2-one] had a melting point of 336 to 339 °C.

Take `Cc1cc2[nH]c(=O)oc2cc1[C@H]1CC[C@H](N(C)CCCc2ccc(F)cc2)CC1` (as salt: salt) [Example 64, 6-(4-{[3-(4-Fluorophenyl)propyl]methyl-amino}cyclohexyl)-5-methyl-3H-benzoxazol-2-one]: the melting point was in the range of 264 to 267 °C.

The compound `COc1cc2[nH]c(=O)oc2cc1[C@H]1CC[C@H](N(C)CCCc2ccc(F)cc2)CC1` (as salt: salt) [Example 65, 6-(trans-4-{[3-(4-Fluorophenyl)propyl]methylamino}cyclohexyl)-5-methoxy-3H-benzoxazol-2-one] displayed a melting point of 239 to 242 °C.

In turn, `C[C@H](N[C@H]1CC[C@H](c2ccc3[nH]c(=O)oc3c2)CC1)[C@H](O)c1ccccc1` (stereo in doubt) (as salt: HCl) [Example 12, 6-{trans-4-[(1S,2R)-2-Hydroxy-1-methyl-2-phenylethylamino]cyclohexyl}-3H-benzoxazol-2-one] showed a melting point of 251 to 256 °C.

The term melting point denotes the temperature of the solid-liquid transition.

These data come from patent US6794402B2, “Bicyclic cyclohexylamines and their use as NMDA receptor antagonists” (Warner-Lambert Company, priority 2000, dated 2004).
